Measured values taken from patent publication US20240189449A1, “LIPID NANOPARTICLES AND POLYNUCLEOTIDES ENCODING ORNITHINE TRANSCARBAMYLASE FOR THE TREATMENT OF ORNITHINE TRANSCARBAMYLASE DEFICIENCY” (ModernaTX, Inc., priority 2021, published 2024).
Marks after values point to notes of the source that are not given here.

Experiments:
Format in all cases: in vivo
[1] = test system: CD-1 mice; test: NPI-Luciferase expression, ex vivo liver bioluminescence, CD-1 mice; conditions: mouse, IV
Experimental: (§1) To further assess potency of expression and metabolic stability of lipids of the disclosure, expression of luciferase was measured following administration to rodents of a nanoparticle of the disclosure comprising an mRNA containing luciferase.
(§2) Lipid nanoparticles including DSPC as a phospholipid, cholesterol as a structural lipid, Compound I as a PEG lipid, an ionizable amino lipid of Formula (II), and an mRNA encoding luciferase were intravenously administered to CD-1 mice and Sprague Dawley rats. The level of expression was tested via bioluminescence in the liver ex vivo at 6 hours after injection.

[2] = test system: CD-1 mice; test: Parent lipid remaining in liver at 24 h, CD-1 mice (hEPO mRNA LNPs); conditions: for Approx. Percent Total Dose of Parent Lipid Remaining at 24 h: calculation assumes a 25 g mouse with a 1.5 g liver
[3] = test system: Sprague Dawley rats; test: Parent lipid remaining in liver tissue at 24 h, rats; conditions: rat
[4] = test system: Sprague Dawley rats; test: NPI-Luciferase expression, ex vivo liver bioluminescence, Sprague Dawley rats; conditions: rat, IV
Experimental: as §1, §2

[5] = test system: CD-1 mice; test: hEPO expression in serum after IV lipid nanoparticles with hEPO mRNA, CD-1 mice; conditions: LNP with DSPC, cholesterol, Compound I; for Mean 6 hr hEPO Concentration: serum 6 hours after injection
Experimental: To assess potency of expression and metabolic stability of lipids of the disclosure, hepatocyte protein expression (hEPO) was measured following administration to mice of a nanoparticle of the disclosure.
Lipid nanoparticles including DSPC as a phospholipid, cholesterol as a structural lipid, Compound I as a PEG lipid, an ionizable amino lipid of Formula (II), and an mRNA encoding hEPO were intravenously administered to CD-1 mice. The concentration of hEPO in serum was tested at 6 hours after injection.

[6] = test system: mice; test: Residual lipid levels in the liver at 24 h, mice (luciferase mRNA LNPs)
[7] = test system: mice; test: Luciferase expression, total whole body flux, mice
Experimental: as §1
Lipid nanoparticles including DSPC as a phospholipid, cholesterol as a structural lipid, Compound I as a PEG lipid, an ionizable amino lipid of Formula (II), and an mRNA encoding luciferase were intravenously administered to CD-1 mice and Sprague Dawley rats. […]

Compound	Mean 6 h ex vivo Liver NPI-Luciferase Total Flux [1]	Parent Lipid Remaining (nmol/g liver tissue) at 24 h [2]	Approx. Percent Total Dose of Parent Lipid Remaining at 24 h [2]	Approx. Percent Total Dose of Parent Lipid Remaining at 24 h [3]	Mean 6 h ex vivo Liver NPI-Luciferase Total Flux [4]	hEPO AUC [5]	Mean 6 hr hEPO Concentration [5]	% Lipid Remaining @ 24 h [6]	Total Whole Body Flux @ 6 h [7]
CCCCCCCCC(CCCCCCCC)COC(=O)CCCCCN(CCCCCCCC(=O)OC(CC)CCCCCCCC)CCCNc1c(NC)c(=O)c1=O (centres unmarked) [Compound 14]	465200000 photons/second	56 ± 6 nmol/g liver tissue	58%	58%	1567000000 photons/second	4.53E+07	2952339 mIU/mL		
CCCCCCCCC(CCCCCCCC)OC(=O)CCCCCCCN(CCO)CCCCCCCC(=O)OCCC(CCC)CCCCCC (centres unmarked) [Compound 13]								<1%	3.77E+10 p/s
CCCCCCCCC(CCCCCCCC)OC(=O)CCCCCCCN(CCO)CCCCCCCC(=O)OCCC(CCCCC)CCCCC [Compound 24]	240400000 photons/second	3 ± 1 nmol/g liver tissue	2%	2%	2020000000 photons/second	1.93E+07	1160499 mIU/mL		
CCCCCC(CCCCC)CCOC(=O)CCCCCCCN(CCCCCCCC(=O)OCCC(CCC)CCC)CCCNc1c(NC)c(=O)c1=O [Compound 51]		4 ± 0.6 nmol/g liver tissue	4%			1.31E+07	1556494 mIU/mL		
CCCCCC(CCCCC)CCOC(=O)CCCCCCCN(CCCCCCCC(=O)OC(CCCCC)CCCCC)CCCNc1c(NC)c(=O)c1=O [Compound 57]		12 ± 1 nmol/g liver tissue	13%			1.60E+07	1238977 mIU/mL		
CCCCCCC(CCCCCC)CCOC(=O)CCCCCCCN(CCO)CCCCCCCC(=O)OCCC(CCCCCC)CCCCCC [Compound 23]		24 ± 3 nmol/g liver tissue	18%			1.40E+07	847586 mIU/mL		
CCCCCCCCC(CCCCCCCC)OC(=O)CCCCCCCN(CCCCCCCC(=O)OCCC(CCCCCC)CCCCCC)CCCNc1c(NC)c(=O)c1=O [Compound 26]		141 ± 15 nmol/g liver tissue	>95%^b			7.52E+06	496951 mIU/mL		
CCCCCCCCC(CCCCCCCC)OC(=O)CCCCCCCN(CCO)CCCCCCCC(=O)OCCC(CCCCCC)CCCCCC [Compound 21]		13 ± 2 nmol/g liver tissue	9%			7.29E+06	458772 mIU/mL		
CCCCCCCCC(CCCCCCCC)OC(=O)CCCCCCCN(CCCCCCCC(=O)OCC(CCC)CCCCCCC)CCCNc1c(NC)c(=O)c1=O (centres unmarked) [Compound 9]								68 ± 10%	1.82E+10 p/s
CCCCCCCCC(CCCCCCCC)OC(=O)CCCCCCCN(CCCCCCCC(=O)OCCC(CCCC)CCCCCC)CCCNc1c(NC)c(=O)c1=O (centres unmarked) [Compound 20]		65 ± 5 nmol/g liver tissue	67%			2.13E+07	1414856 mIU/mL		
CCCCCCCCC(CCCCCCCC)OC(=O)CCCCCCCN(CCCCCCCC(=O)OCC(CCCCCCC)C(C)C)CCCNc1c(NC)c(=O)c1=O (centres unmarked) [Compound 19]		73 ± 6 nmol/g liver tissue	75%			3.11E+07	2089101 mIU/mL		
CCCCCC(CCCCC)OC(=O)CCCCCCCN(CCCCCCCC(=O)OCCC(CCC)CCC)CCCNc1c(NC)c(=O)c1=O [Compound 65]		0.9 ± 0.3 nmol/g liver tissue	0.9 ± 0.06%			1.02E+07	734054 mIU/mL		
CCCCCCCCC(CCCCCCCC)OC(=O)CCCCCCCN(CCCCCCCC(=O)OCC(CC)CCCCCCC)CCCNc1c(NC)c(=O)c1=O (centres unmarked) [Compound 11]								23 ± 6%	1.04E+10 p/s
CCCCCCCCC(CCCCCCCC)OC(=O)CCCCCCCN(CCO)CCCCCCCC(=O)OCCCC(CCCCC)CCCCC [Compound 31]		2 ± 0.6 nmol/g liver tissue	<0.1%			7.72E+06	517841 mIU/mL		
CCCC(CCC)CCOC(=O)CCCCCCCN(CCCCCCCC(=O)OCCC(CCC)CCC)CCCNc1c(NC)c(=O)c1=O [Compound 53]		<1 nmol/g liver tissue	<1%			6.63E+03	130324 mIU/mL		
CCCCCCCCC(CCCCCCCC)OC(=O)CCCCCCCN(CCCCCCCC(=O)OCCCC(CCCCC)CCCCC)CCCNc1c(NC)c(=O)c1=O [Compound 32]		69 ± 17 nmol/g liver tissue	71%			1.63E+06	111656 mIU/mL		
CCCCCCCCC(CCCCCC)COC(=O)CCCCCN(CCCCCCCC(=O)OC(CC)CCCCCCCC)CCCNc1c(NC)c(=O)c1=O (centres unmarked) [Compound 15]		51 ± 4 nmol/g liver tissue	53%			4.31E+07	2933644 mIU/mL		
CCCCCCC(CCCCCC)OC(=O)CCCCCCCN(CCCCCCCC(=O)OCCC(CCCC)CCCC)CCCNc1c(NC)c(=O)c1=O [Compound 60]		8.5 ± 0.6 nmol/g liver tissue	9 ± 0.8%			1.42E+07	1031398 mIU/mL		
CCCCCCCCC(CCCCCCCC)OC(=O)CCCCCCCN(CCCCCCCC(=O)OCC(CCCCC)CCCCCCC)CCCNc1c(NC)c(=O)c1=O (centres unmarked) [Compound 16]		77 ± 3 nmol/g liver tissue	79%			2.18E+07	1461176 mIU/mL		
CCCCC(CCCC)CCOC(=O)CCCCCCCN(CCCCCCCC(=O)OC(CCCC)CCCC)CCCNc1c(NC)c(=O)c1=O [Compound 62]		1.8 ± 0.6 nmol/g liver tissue	2 ± 0.9%			6.51E+06	475498 mIU/mL		
CCCCCC(CCCCC)CCCOC(=O)CCCCCCCN(CCO)CCCCCCCC(=O)OCCCC(CCCCC)CCCCC [Compound 33]		0.5 ± 0.3 nmol/g liver tissue	<0.1%			5.89E+06	389395 mIU/mL		
CCCCCCCCC(CCCCCCCC)OC(=O)CCCCCCCN(CCCCCCCC(=O)OCCC(CCCCCC)C(C)C)CCCNc1c(NC)c(=O)c1=O (centres unmarked) [Compound 17]		35 ± 5 nmol/g liver tissue	36%			2.61E+07	1777875 mIU/mL		
CCCCCCCCC(CCCCCCCC)OC(=O)CCCCCCCN(CCCCCCCC(=O)OCCC(CCC)CCCCCC)CCCNc1c(NC)c(=O)c1=O (centres unmarked) [Compound 18]	372800000 photons/second	40 ± 7 nmol/g liver tissue	41%	41%	1473333333 photons/second	3.17E+07	2158772 mIU/mL		
CCCCCCC(CCCCCC)CCOC(=O)CCCCCCCN(CCCCCCCC(=O)OCCC(CCCCCC)CCCCCC)CCCNc1c(NC)c(=O)c1=O [Compound 28]		58 ± 7 nmol/g liver tissue	60%			1.44E+07	938332 mIU/mL		
CCCCCCCCC(CCCCCCCC)OC(=O)CCCCCCCN(CCCCCCCC(=O)OCCC1CCC(CCC)CC1)CCCNc1c(NC)c(=O)c1=O (centres unmarked) [Compound 39]		4 ± 1 nmol/g liver tissue	4%			1.94E+06	129750 mIU/mL		
CCCCCC(CCCCC)CCCOC(=O)CCCCCCCN(CCCCCCCC(=O)OCCCC(CCCCC)CCCCC)CCCNc1c(NC)c(=O)c1=O [Compound 34]		12 ± 2 nmol/g liver tissue	12%			3.01E+06	205437 mIU/mL		
